Laboratory results from patent US9932309B2, “2-oxo-3,4-dihydropyridine-5-carboxylates and their use” (UNIVERSITE DE LILLE 2 DROIT ET SANTE, priority 2014, dated 2018).

Key:
hTGR5 = biological target: T1, hTGR5 (Homo sapiens, UniProt Q8TDU6); experiment: TGR5/CRE Luciferase Assay (hTGR5); format: cell-based; conditions: for EC50: HEK 293 cells co-transfected with pCMV tag4b-TGR5h and pCRE TA-Luciferase, overnight incubation; for hTGR5 % trans: percentage of the 10 μM LCA value, HEK 293 cells transfected with hTGR5
T1 construct: expressed in transfected cells; host or cells: HEK293 cells, transiently co-transfected with the pCRE TA-Luciferase reporter
T1 sequence (Q8TDU6 1-330): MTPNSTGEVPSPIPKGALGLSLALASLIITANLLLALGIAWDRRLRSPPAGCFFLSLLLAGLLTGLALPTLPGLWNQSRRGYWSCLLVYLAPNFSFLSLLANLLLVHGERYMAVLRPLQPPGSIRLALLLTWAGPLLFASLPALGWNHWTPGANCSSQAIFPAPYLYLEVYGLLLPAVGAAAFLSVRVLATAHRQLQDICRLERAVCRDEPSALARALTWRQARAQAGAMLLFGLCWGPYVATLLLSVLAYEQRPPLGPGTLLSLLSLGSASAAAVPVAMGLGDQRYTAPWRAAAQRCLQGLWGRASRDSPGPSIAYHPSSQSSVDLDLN
Experimental: (§1) TGR5/CRE Luciferase Assay
(§2) In the following Tables TGR5 activation by compounds of the invention and subsequent increase in intracellular cAMP were evaluated using a luciferase reporter gene assay. Human embryonic kidney (HEK) 293 cells were transiently co-transfected with pCMV tag4b-TGR5 h (to follow hTGR5 activation) or pCMV AC6-TGR5m (to follow mTGR5 activation) expression plasmids and the pCRE TA-Luciferase reporter plasmid using the JET PEI reagent (Polyplus transfection). Transfected cells were seeded in 96-well plates and incubated overnight with the test compounds at increasing concentrations tested in duplicate. Lithocolic acid (LCA) at 10 μM was used as a positive reference compound. The cAMP-dependent luciferase expression was followed using the BrightGlo reagent according to the manufacturer (Promega) instructions. Luminescence was read with a Mithras plate reader (Berthold) or a Victor3™ V1420 (Perkin Elmer). […] Concentration-response curves were fitted by a nonlinear regression analysis to a 4 parameter logistic equation

mTGR5 = biological target: T2, mTGR5 (Mus musculus, UniProt Q80SS6); experiment: TGR5/CRE Luciferase Assay (mTGR5); format: cell-based; conditions: for EC50: HEK 293 cells co-transfected with pCMV AC6-TGR5m and pCRE TA-Luciferase, overnight incubation; for mTGR5 % trans: percentage of the 10 μM LCA value, HEK 293 cells transfected with mTGR5
T2 construct: expressed in transfected cells; host or cells: HEK293 cells, transiently co-transfected with the pCRE TA-Luciferase reporter
T2 sequence (Q80SS6 1-329): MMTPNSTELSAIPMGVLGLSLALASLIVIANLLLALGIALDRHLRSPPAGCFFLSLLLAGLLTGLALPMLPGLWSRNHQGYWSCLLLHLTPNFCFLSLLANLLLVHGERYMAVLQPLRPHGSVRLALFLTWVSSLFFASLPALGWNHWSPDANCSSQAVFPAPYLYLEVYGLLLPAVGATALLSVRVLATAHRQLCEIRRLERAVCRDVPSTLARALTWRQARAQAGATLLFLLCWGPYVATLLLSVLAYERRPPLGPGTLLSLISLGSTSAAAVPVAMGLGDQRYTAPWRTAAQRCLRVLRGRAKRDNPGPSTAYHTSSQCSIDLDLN
Experimental: as §1, §2

Row | SMILES | EC50 (hTGR5) | hTGR5 % trans (hTGR5) | EC50 (mTGR5) | mTGR5 % trans (mTGR5)
1 | COCCN1C(=O)CC(c2ccc(Cl)cc2)C(C(=O)OCc2ccc(C)cc2)=C1C (centres unmarked) [Example 100, p-tolylmethyl 4-(4-chlorophenyl)-1-(2-methoxyethyl)-6-methyl-2-oxo-3,4-dihydropyridine-5-carboxylate] | 600 nM | 72% | 400 nM | 89%
2 | COCCOc1ccc(COC(=O)C2=C(C)N(CCOC)C(=O)CC2c2ccc(Cl)cc2)cc1 (centres unmarked) [Example 119, [4-(2-methoxyethoxy)phenyl]methyl 4-(4-chlorophenyl)-1-(2-methoxyethyl)-6-methyl-2-oxo-3,4-dihydropyridine-5-carboxylate] | 100 nM | 85% | 100 nM | 83%
3 | CCOC(=O)CN1C(=O)CC(c2ccc(Cl)cc2)C(C(=O)OCc2ccccc2OC)=C1C (centres unmarked) [Compound 69, (2-methoxyphenyl)methyl 4-(4-chlorophenyl)-1-(2-ethoxy-2-oxo-ethyl)-6-methyl-2-oxo-3,4-dihydropyridine-5-carboxylate] | 300 nM | 105% | 400 nM | 104%
4 | CC1=C(C(=O)OCc2ccc(OCCCCS(=O)(=O)O)cc2)[C@H](c2ccc(Cl)cc2)CC(=O)N1C[C@H]1CCCO1 [Example 169, Ammonium; 4-[4-[[(4S)-4-(4-chlorophenyl)-6-methyl-2-oxo-1-[[(2R)-tetrahydrofuran-2-yl]methyl]-3,4-dihydropyridine-5-carbonyl]oxymethyl]phenoxy]butane-1-sulfonate] | 30 nM | 103% | 9 nM | 103%
5 | CC1=C(C(=O)OCc2ccc(C)cc2)C(c2ccc(Cl)cc2)CC(=O)N1C (centres unmarked) [Example 79, p-tolylmethyl 4-(4-chlorophenyl)-1,6-dimethyl-2-oxo-3,4-dihydropyridine-5-carboxylate] | 700 nM | 80% | 700 nM | 73%
6 | COc1ccccc1COC(=O)C1=C(C)N(C[C@H]2CCCO2)C(=O)C[C@H]1c1cccnc1Cl (racemic) [Example 151, (2-Methoxyphenyl)methyl (4R)-4-(2-chloro-3-pyridyl)-6-methyl-2-oxo-1-[[(2R)-tetrahydrofuran-2-yl]methyl]-3,4-dihydropyridine-5-carboxylate and (2-methoxyphenyl)methyl (4S)-4-(2-chloro-3-pyridyl)-6-methyl-2-oxo-1-[[(2S)-tetrahydrofuran-2-yl]methyl]-3,4-dihydropyridine-5-carboxylate] | 2200 nM | 87% | 12500 nM | 44%
7 | CC1=C(C(=O)OC2CCc3ccccc32)[C@H](c2ccc(Cl)cc2)CC(=O)N1C[C@H]1CCCO1 (mixture of isomers) [Example 137, Indan-1-yl (4S)-4-(4-chlorophenyl)-6-methyl-2-oxo-1-[[(2R)-tetrahydrofuran-2-yl]methyl]-3,4-dihydropyridine-5-carboxylate] | 380 nM | 70% | 930 nM | 40%
8 | COCCN1C(=O)CC(c2ccc(Cl)cc2)C(C(=O)OCc2ccc(-c3ccccc3)cc2)=C1C (centres unmarked) [Example 108, (4-phenylphenyl)methyl 4-(4-chlorophenyl)-1-(2-methoxyethyl)-6-methyl-2-oxo-3,4-dihydropyridine-5-carboxylate] | 500 nM |  | 600 nM | 
9 | COCCN1C(=O)CC(c2ccc(Cl)cc2)C(C(=O)N2CCCc3ccccc32)=C1C (centres unmarked) [Example 77, 4-(4-chlorophenyl)-5-(3,4-dihydro-2H-quinoline-1-carbonyl)-1-(2-methoxyethyl)-6-methyl-3,4-dihydropyridin-2-one] | 2900 nM | 71% | 12300 nM | 73%
10 | CC1=C(C(=O)OCc2ccccc2)C(c2ccc(Cl)cc2)CC(=O)N1CC1C[N+](C)(C)C1.[I-] (centres unmarked) [Compound 48, Benzyl 4-(4-chlorophenyl)-1-[(1,1-dimethylazetidin-1-ium-3-yl)methyl]-6-methyl-2-oxo-3,4-dihydropyridine-5-carboxylate iodide] | 12000 nM | 13% |  | 0%
11 | O=C1CC(c2ccc(Cl)cc2)C(C(=O)NCc2ccccc2)=CN1 (centres unmarked) [Compound 25, N-benzyl-4-(4-chlorophenyl)-2-oxo-3,4-dihydro-1H-pyridine-5-carboxamide] | 1220 nM | 43% | 500 nM | 36%
12 | CC1=C(C(=O)OCc2ccccc2)C(c2ccc(C)cc2)CC(=O)N1 (centres unmarked) [Compound 3, 2-Methyl-6-oxo-4-p-tolyl-1,4,5,6-tetrahydro-pyridine-3-carboxylic acid benzyl ester] | 7400 nM | 65% | 10400 nM | 45%
13 | CC1=C(C(=O)OCc2c(F)cccc2F)C(c2ccc(Cl)cc2)CC(=O)N1C (centres unmarked) [Example 82, (2,6-difluorophenyl)methyl 4-(4-chlorophenyl)-1,6-dimethyl-2-oxo-3,4-dihydropyridine-5-carboxylate] | 700 nM | 74% | 1500 nM | 59%
14 | CC1=C(C(=O)OCc2ccccc2)C(c2ccc(C(F)(F)F)cc2)CC(=O)N1 (centres unmarked) [Compound 9, 2-Methyl-6-oxo-4-(4-trifluoromethyl-phenyl)-1,4,5,6-tetrahydro-pyridine-3-carboxylic acid benzyl ester] | 1500 nM | 48% | 1400 nM | 37%
15 | COCCN1C(=O)CC(c2ccc(Cl)cc2)C(C(=O)OCc2c(C)cc(C)cc2C)=C1C (centres unmarked) [Example 101, (2,4,6-trimethylphenyl)methyl 4-(4-chlorophenyl)-1-(2-methoxyethyl)-6-methyl-2-oxo-3,4-dihydropyridine-5-carboxylate] | 200 nM | 75% | 200 nM | 84%
16 | COCCN1C(=O)CC(c2ccc(Cl)cc2)C(C(=O)OCc2ccncc2)=C1C (centres unmarked) [Example 107, 4-pyridylmethyl 4-(4-chlorophenyl)-1-(2-methoxyethyl)-6-methyl-2-oxo-3,4-dihydropyridine-5-carboxylate] | 1200 nM | 71% | 600 nM | 83%
17 | COCCN1C(=O)CC(c2ccc(Cl)cc2)C(C(=O)OCc2cccc(C#N)c2)=C1C (centres unmarked) [Example 94, (3-cyanophenyl)methyl 4-(4-chlorophenyl)-1-(2-methoxyethyl)-6-methyl-2-oxo-3,4-dihydropyridine-5-carboxylate] | 600 nM | 61% | 400 nM | 65%
18 | COc1ccccc1COC(=O)C1=C(C)N(Cc2ccco2)C(=O)CC1c1ccc(Cl)cc1 (centres unmarked) [Compound 66] | 200 nM | 62% | 100 nM | 78%
19 | CN1C=C(C(=O)NCc2ccccc2)C(c2ccc(Cl)cc2)CC1=O (centres unmarked) [Compound 26, N-benzyl-4-(4-chlorophenyl)-1-methyl-2-oxo-3,4-dihydropyridine-5-carboxamide] | 4600 nM | 10% | 1800 nM | 20%
20 | COCCOc1ccc(COC(=O)C2=C(C)N(C[C@H]3CCCO3)C(=O)C[C@H]2c2ccc(Cl)cc2)cc1 (racemic) [Example 136, 4-(2-methoxyethoxy)phenyl]methyl (4S)-4-(4-chlorophenyl)-6-methyl-2-oxo-1-[[(2R)-tetrahydrofuran-2-yl]methyl]-3,4-dihydropyridine-5-carboxylate and 4-(2-methoxyethoxy)phenyl]methyl (4R)-4-(4-chlorophenyl)-6-methyl-2-oxo-1-[[(2S)-tetrahydrofuran-2-yl]methyl]-3,4-dihydropyridine-5-carboxylate] | 20 nM | 93% | 40 nM | 111%
